The data set in a line: Overall tolerability in the relative bioavailability study. Format: in vivo, human. Particulars: doses of 10 mg, 20 mg, 30 mg and single oral dose of 25 mg (1×25 mg tablet); healthy adult subjects under fed conditions. As for the experimental part: Assessments include evaluation of changes in orthostatic hypotension, oral irritation, vital sign assessments, 12-lead electrocardiogram (ECG), and clinical assessments.
After dosing, the following activities were completed: • Both objective and subjective oral irritation assessments were performed immediately after dosing and at one hour after dose administration. • A fast was maintained until at least four hours after dosing. During the study confinement period, fluid consumption resumed no sooner than one hour after dose administration. […] Day 2 • Blood sample collections were obtained as per the profile. • Supine and standing blood pressure and heart rate was measured at approximately 24 hours after each dose. • All subjects were evaluated for the presence of any adverse events prior to release from the study site. • Prior to release, subjects were evaluated to ensure it was safe for them to be released from the study site. • Subjects were released from the study site at approximately 24 hours after dose administration. […]

Counter-ions that a name gives are not always drawn.

For the molecule `CCCc1nn(C)c2c(=O)[nH]c(-c3cc(S(=O)(=O)N4CCN(C)CC4)ccc3OCC)nc12` [sildenafil citrate], the tolerability result is “well tolerated”.
